Non-standard residues stand in square brackets, D forms with d. Residues, ends and D or L forms follow the SMILES beside them. GABA = NCCCC(=O)O
How the values were obtained:
[1] = tested on: mice (CD-1), collagen/adrenaline-induced thromboembolism; test: Thromboembolism in mice (collagen + adrenaline i.v.); format: in vivo; conditions: for dose from which formation of microthrombi in the lungs is inhibited: histological examination of lungs; for dose that protects half of the mice: i.v., injected with collagen + adrenaline, death or paralysis at 15 min
Method: Male mice (CD-1) weighing from 28 to 32 g are used for these experiments. The animals are maintained at from 26° to 28° C. for the 30 minutes preceding the experiment. A combination of collagen (150 μg/ml) and adrenaline (100 μmol/l) causes the mice to die by paralysis. Each mouse receives 0.1 ml of that combination, which gives a dose of 1.8 μg of adrenaline and 15 μg of collagen per mouse. The incidence of death or paralysis is observed 15 minutes after the intravenous injection (i.v.) of the combination (adrenaline+collagen) into the caudal vein. The peptides are injected at the same time as the combination of agonists. In the case of the tests relating to the duration of action, the mice are pre-treated with the peptides i.v. in a volume of 0.1 ml. A histological examination of the lungs is carried out in order to visualise the presence of microthrombi in the vessels of the microcirculation, which are attributable to the adrenaline-collagen combination. At the end of the experiment, the lungs are rapidly removed, fixed in formalin and then enclosed in paraffin. 5 μm sections are made and coloured with haematoxylin/eosin. The sections are examined and the presence or absence of microthrombi is noted. The X^2 test (Fischer) is used to determine whether there is a significant difference between the effects in mice that have received the peptides and those that have not.

[2] = tested on: formation of a blood clot in the mesenteric artery of the rat; test: Experimental thrombosis in the mesenteric artery of the rat; format: in vivo; conditions: venous infusion for 5 min
Method: The experiments were carried out on male rats (250 to 400 g). The animals are anaesthetised with pentobarbitone (50 mg/kg i.p.). A catheter is installed in the jugular vein in order to permit i.v. injections.
The preparation of the mesenteric artery and the induction of thrombosis are carried out in accordance with the method described by Bourgain et al. Adv. Exp. Med. Biol., 180, 635-649, (1984). A longitudinal incision is made in the abdomen and part of the intestine is exposed. Using a binocular magnifying device, a branch of the mesenteric artery from 200 to 500 μm in diameter is prepared. The adjacent vein is separated and the adipose tissues are removed; a 2 mm segment of artery is thus prepared. The animal is then installed under a microscope and the segment of the mesenteric artery is perfused with physiological solution (37° C.) at 5 ml/min. The segment can be observed for several hours. The images are recorded using a video camera and a magnetoscope.
After installation and stabilisation of the preparation, a platinum electrode is placed on each side of the arteriole wall using a micromanipulator. An endothelial lesion is then induced by applying for 60 seconds an electric current of 40 μA, the current being reversed every 5 seconds. […] Normally, no thrombus formation is observed on applying the electric current.
The formation of a clot is then induced by perfusion with ADP (adenosine diphosphate) for 2 minutes. The ADP is used at a final molarity of 300 μM. The clot forms and then, after 2 to 5 minutes, disappears by embolisation. The vessel then re-assumes a normal state; there is no spontaneous formation of a clot.
The effect of the products on the formation of thrombi was tested by treating the animals by venous infusion for 5 minutes. The infusion starts […] minute before perfusion with ADP.
The recorded images are analysed and the size of the clots is expressed in arbitrary surface values. The measurements are carried out at determined times during and after the perfusion of ADP. A comparison can therefore be made of the size of the clots in the control state and after the infusion of the product.

Row | Compound | dose from which formation of microthrombi in the lungs is inhibited [1] [mg/mouse] | dose that protects half of the mice [1] [mg/mouse] | times more active than the reference substance (RGDW) ([1]; ratio of doses protecting half of the mice) [times] | Percentage inhibition of the formation of a blood clot in the mesenteric artery of the rat ([2]; 2 mg/kg/min) [%] | Percentage inhibition of the formation of a blood clot in the mesenteric artery of the rat ([2]; 5 mg/kg/min) [%] | Percentage inhibition of the formation of a blood clot in the mesenteric artery of the rat ([2]; 10 mg/kg/min) [%] | duration of action ([1]; dose of 1 mg, i.v. pre-treatment)
1 | N=C(N)NCCC[C@H](NC(=O)CCCN)C(=O)NCC(=O)N[C@@H](CC(=O)O)C(=O)N[C@@H](Cc1c[nH]c2ccccc12)C(=O)O [Example 11, H2 N--(CH2)3 --CO--Arg--Gly--Asp--Trp--OH] (H-[GABA]RGDW-OH) | ≥ 0.03 | 0.03 | 10 | – | – | – | –
2 | NCCCC[C@H](NC(=O)CCCN)C(=O)NCC(=O)N[C@@H](CC(=O)O)C(=O)N[C@@H](Cc1c[nH]c2ccccc12)C(=O)O [Example 12, H2 N--(CH2)3 --CO--Lys--Gly--Asp--Trp--OH] (H-[GABA]KGDW-OH) | – | – | – | 17 | 33 | 56 | –
3 | N=C(N)NCCC[C@H](N)C(=O)NCC(=O)N[C@@H](CC(=O)O)C(=O)N[C@@H](Cc1c[nH]c2ccccc12)C(=O)O [H--Arg--Gly--Asp--Trp--OH, reference compound] (H-RGDW-OH) | ≥ 1 | 0.3 | – | – | – | 36 | less than 5 minutes

Reference: patent publication US5565426A, “Peptide compounds active in cell adhesion processes” (Adir et Compagnie, priority 1992, dated 1996)
